Experiment [1] has as its target T1, HCV NS3/4A protease complex (Hepatitis C virus genotype 1a, UniProt P27958, C1454S/C1711G).
T1 construct: recombinant HCV NS3/4A protease complex (amino acids 1027 to 1711); inferred from the pET21b vector and Ni-NTA purification; made in house; host or cells: Escherichia coli BL21 (DE3)
As to the kind of experiment: FRET peptide assay to monitor HCV NS3/4A proteolytic activity. The experiment is classed as biochemical. To be noted: HCV NS3/4A protease complex, strain not stated, read-out: IC50. The text has this:
HCV NS3 protease complexes, derived from the BMS strain, H77 strain or J4L6S strain, were generated, as described below. These purified recombinant proteins were generated for use in a homogeneous assay (see below) to provide an indication of how effective compounds of the present disclosure would be in inhibiting HCV NS3 proteolytic activity.
The H77 and J4L6S strains were used for production of recombinant NS3/4A protease complexes. DNA encoding the recombinant HCV NS3/4A protease complex (amino acids 1027 to 1711) for these strains was manipulated as described by P. Gallinari et al. (see Gallinari P, Paolini C, Brennan D, Nardi C, Steinkuhler C, De Francesco R. Biochemistry. 38(17):5620-32, (1999)). Briefly, a three-lysine solubilizing tail was added at the 3′-end of the NS4A coding region. The cysteine in the P1 position of the NS4A-NS4B cleavage site (amino acid 1711) was changed to a glycine to avoid the proteolytic cleavage of the lysine tag. Furthermore, a cysteine to serine mutation was introduced by PCR at amino acid position 1454 to prevent the autolytic cleavage in the NS3 helicase domain. The variant DNA fragment was cloned in the pET21b bacterial expression vector (Novagen) and the NS3/4A complex was expressed in Escherichia coli strain BL21 (DE3) (Invitrogen) following the protocol described by P. Gallinari et al. (see Gallinari P, Brennan D, Nardi C, Brunetti M, Tomei L, Steinkuhler C, De Francesco R., J Virol. 72(8):6758-69 (1998)) with modifications. Briefly, the NS3/4A protease complex expression was induced with 0.5 millimolar (mM) Isopropyl β-D-1-thiogalactopyranoside (IPTG) for 22 hours (h) at 20° C. A typical fermentation (1 Liter (L)) yielded approximately 10 grams (g) of wet cell paste. The cells were resuspended in lysis buffer (10 mL/g) consisting of 25 mM N-(2-Hydroxyethyl)Piperazine-N′-(2-Ethane Sulfonic acid) (HEPES), pH 7.5, 20% glycerol, 500 mM Sodium Chloride (NaCl), 0.5% Triton X-100, 1 microgram/milliliter (“μg/mL”) lysozyme, 5 mM Magnesium Chloride (MgCl2), 1 μg/ml DnaseI, 5 mM β-Mercaptoethanol (βME), Protease inhibitor-Ethylenediamine Tetraacetic acid (EDTA) free (Roche), homogenized and incubated for 20 minutes (min) at 4° C. The homogenate was sonicated and clarified by ultra-centrifugation at 235000 g for 1 hour (h) at 4° C. Imidazole was added to the supernatant to a final concentration of 15 mM and the pH adjusted to 8.0. The crude protein extract was loaded on a Nickel-Nitrilotriacetic acid (Ni-NTA) column pre-equilibrated with buffer B (25 mM HEPES, pH 8.0, 20% glycerol, 500 mM NaCl, 0.5% Triton X-100, 15 mM imidazole, 5 mM βME). The sample was loaded at a flow rate of 1 ml/min. The column was washed with 15 column volumes of buffer C (same as buffer B except with 0.2% Triton X-100). The protein was eluted with 5 column volumes of buffer D (same as buffer C except with 200 mM Imidazole).
NS3/4A protease complex-containing fractions were pooled and loaded on a desalting column Superdex-S200 pre-equilibrated with buffer D (25mM HEPES, pH 7.5, 20% glycerol, 300 mM NaCl, 0.2% Triton X-100, 10 mM βME). Sample was loaded at a flow rate of 1 mL/min. NS3/4A protease complex-containing fractions were pooled and concentrated to approximately 0.5 mg/ml. The purity of the NS3/4A protease complexes, derived from the BMS, H77 and J4L6S strains, were judged to be greater than 90% by SDS-PAGE and mass spectrometry analyses. The enzyme was stored at −80° C., thawed on ice and diluted prior to use in assay buffer.
The purpose of this in vitro assay was to measure the inhibition of HCV NS3 protease complexes, derived from the BMS strain, H77 strain or J4L6S strain, as described above, by compounds of the present disclosure. This assay provides an indication of how effective compounds of the present disclosure would be in inhibiting HCV NS3 proteolytic activity.
In order to monitor HCV NS3/4A protease activity, an NS3/4A peptide substrate was used. […]

Experiment [2] deals with HCV replicon in HUH-7 cells. As to the kind of experiment: HCV replicon assay (FRET, confirmed in the luciferase reporter assay). The class given is cell-based. To be noted: Hepatitis C virus, 96 h, 4 days. The text has this: An HCV replicon whole cell system was established as described by Lohmann V, Korner F, Koch J, Herian U, Theilmann L, Bartenschlager R., Science 285(5424):110-3 (1999). This system enabled us to evaluate the effects of our HCV Protease compounds on HCV RNA replication. Briefly, using the HCV strain 1b sequence described in the Lohmann paper (Assession number: AJ238799), an HCV cDNA was synthesized by Operon Technologies, Inc. (Alameda, Calif.), and the full-length replicon was then assembled in plasmid pGem9zf(+) (Promega, Madison, Wis.) using standard molecular biology techniques. The replicon consists of (i) the HCV 5′ UTR fused to the first 12 amino acids of the capsid protein, (ii) the neomycin phosphotransferase gene (neo), (iii) the IRES from encephalomyocarditis virus (EMCV), and (iv) HCV NS3. to NS5B genes and the HCV 3′ UTR. Plasmid DNAs were linearized with Seal and RNA transcripts were synthesized in vitro using the T7 MegaScript transcription kit (Ambion, Austin, Tex.) according to manufacturer's directions. In vitro transcripts of the cDNA were transfected into the human hepatoma cell line, HUH-7. […] Resulting cell lines were characterized for positive and negative strand RNA production and protein production over time.
The HCV replicon FRET assay was developed to monitor the inhibitory effects of compounds described in the disclosure on HCV viral replication. HUH-7 cells, constitutively expressing the HCV replicon, were grown in Dulbecco's Modified Eagle Media (DMEM) (Gibco-BRL) containing 10% Fetal calf serum (FCS) (Sigma) and 1 mg/ml G418 (Gibco-BRL). Cells were seeded the night before (1.5×10^4 cells/well) in 96-well tissue-culture sterile plates. Compound and no compound controls were prepared in DMEM containing 4% FCS, 1:100 Penicillin/Streptomysin (Gibco-BRL), 1:100 L-glutamine and 5% DMSO in the dilution plate (0.5% DMSO final concentration in the assay). Compound/DMSO mixes were added to the cells and incubated for 4 days at 37° C. After 4 days, cells were first assessed for cytotoxicity using alamar Blue (Trek Diagnotstic Systems) for a CC50 reading. The toxicity of compound (CC50) was determined by adding 1/10th volume of alamar Blue to the media incubating the cells. After 4 h, the fluorescence signal from each well was read, with an excitation wavelength at 530 nm and an emission wavelength of 580 nm, using the Cytofluor Series 4000 (Perspective Biosystems). Plates were then rinsed thoroughly with Phosphate-Buffered Saline (PBS) (3 times 150 μl).
As a secondary assay, EC50 determinations from the replicon FRET assay were confirmed in a replicon luciferase reporter assay. Utilization of a replicon luciferase reporter assay was first described by Krieger et al (Krieger N, Lohmann V, and Bartenschlager R, J. Virol. 75(10):4614-4624 (2001)). The replicon construct described for our FRET assay was modified by inserting cDNA encoding a humanized form of the Renilla luciferase gene and a linker sequence fused directly to the 3′-end of the luciferase gene. This insert was introduced into the replicon construct using an Ascl restriction site located in core, directly upstream of the neomycin marker gene. The adaptive mutation at position 1179 (serine to isoleucine) was also introduced (Blight K J, Kolykhalov, A A, Rice, C M, Science 290(5498):1972-1974). A stable cell line constitutively expressing this HCV replicon construct was generated as described above. The luciferase reporter assay was set up as described for the HCV replicon FRET assay with the following modifications. Following 4 days in a 37° C./5% CO2 incubator, cells were analyzed for Renilla Luciferase activity using the Promega Dual-Glo Luciferase Assay System. Media (100 μl) was removed from each well containing cells. To the remaining 50 μl of media, 50 μl of Dual-Glo Luciferase Reagent was added, and plates rocked for 10 min to 2 h at room temperature. […]

The values that follow come from US20100080770A1, “Hepatitis C Virus Inhibitors” (priority 2008, published 2010).

For orientation: IC50 means the point on the concentration scale where inhibition reaches its midpoint. The term EC50 denotes the concentration at which the effect is half-maximal. A higher EC50 goes with a need for much substance.

Where two headings read alike, the source gives them in different places.

T1 sequence (P27958 1027-1711 C1454S/C1711G, one chain of several): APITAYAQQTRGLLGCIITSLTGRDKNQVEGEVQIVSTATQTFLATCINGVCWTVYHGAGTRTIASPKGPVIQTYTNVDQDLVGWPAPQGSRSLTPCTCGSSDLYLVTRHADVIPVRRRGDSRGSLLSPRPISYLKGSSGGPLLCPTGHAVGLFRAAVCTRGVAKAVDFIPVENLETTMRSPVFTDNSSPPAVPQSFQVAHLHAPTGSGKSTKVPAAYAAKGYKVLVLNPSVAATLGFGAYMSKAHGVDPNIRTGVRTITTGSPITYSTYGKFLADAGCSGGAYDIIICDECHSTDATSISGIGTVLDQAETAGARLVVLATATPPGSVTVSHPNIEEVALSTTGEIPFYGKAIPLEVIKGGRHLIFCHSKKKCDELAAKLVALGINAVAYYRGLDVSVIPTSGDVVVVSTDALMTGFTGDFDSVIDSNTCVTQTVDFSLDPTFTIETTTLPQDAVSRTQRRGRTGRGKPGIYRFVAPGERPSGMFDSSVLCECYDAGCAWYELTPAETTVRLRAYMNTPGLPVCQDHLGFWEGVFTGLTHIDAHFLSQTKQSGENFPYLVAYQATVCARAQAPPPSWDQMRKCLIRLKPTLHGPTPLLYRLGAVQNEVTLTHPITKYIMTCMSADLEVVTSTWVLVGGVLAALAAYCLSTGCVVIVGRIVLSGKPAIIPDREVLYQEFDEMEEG

For `C=C[C@@H]1C[C@]1(NC(=O)[C@@H]1C[C@]2(OC)CN1C(=O)[C@H](C(C)(C)C)NC(=O)OCC/C=C\c1cc3cc2ccc3cc1OC)C(=O)NS(=O)(=O)C1CC1` [Example 1], the IC50 in experiment [1] (numeric values) stood at 31 nM. The molecule further came in with an EC50 in experiment [2] (numeric values) of 120 nM.
On to `C=C[C@@H]1C[C@]1(NC(=O)[C@@H]1C[C@]2(OC)CN1C(=O)[C@H](C(C)(C)C)NC(=O)OCCC/C=C\c1cc3cc2ccc3cc1OC)C(=O)NS(=O)(=O)C1CC1` [Example 4], for which the IC50 in experiment [1] (class symbols) is 1 to 10 nM. The concentration giving a half-maximal response (EC50) in experiment [2] (class symbols) lay in the range of 1 to 10 nM.
As to `C=C[C@@H]1C[C@]1(NC(=O)[C@@H]1C[C@]2(OC)CN1C(=O)[C@H](C(C)(C)C)NC(=O)OCCCCC=Cc1cc3cc2ccc3cc1OC)C(=O)NS(=O)(=O)C1CC1` [Example 7], the IC50 in experiment [1] (class symbols) was 1 to 10 nM. In experiment [2] (class symbols), this molecule registered a 50% effective concentration (EC50) of 1 to 10 nM.
`C=C[C@@H]1C[C@]1(NC(=O)[C@@H]1C[C@]2(OC)CN1C(=O)[C@H](C(C)(C)C)NC(=O)OCC(C)(C)C/C=C\c1cc3cc2ccc3cc1OC)C(=O)NS(=O)(=O)C1CC1` [Example 8]: the IC50 in experiment [1] (class symbols) is 1 to 10 nM. In experiment [2] (class symbols), this molecule registered an EC50 of 1 to 10 nM.
With `C=C[C@@H]1C[C@]1(NC(=O)[C@@H]1C[C@]2(OC)CN1C(=O)[C@H](C(C)(C)C)NC(=O)OCC(C)(C)CCCc1cc3cc2ccc3cc1OC)C(=O)NS(=O)(=O)C1CC1` [Example 9], the half-inhibitory concentration (IC50) in experiment [1] (class symbols) is 1 to 10 nM. For the same molecule, the EC50 in experiment [2] (class symbols) lay in the range of 1 to 10 nM.
Consider `COc1cc2ccc3cc2cc1CCCC(C)(C)COC(=O)N[C@@H](C(C)(C)C)C(=O)N1C[C@@]3(OC)C[C@H]1C(=O)N[C@]1(C(=O)NS(=O)(=O)C2CC2)C[C@H]1C1CC1` [Example 10], for which the IC50 in experiment [1] (class symbols) fell in the range of 11 to 12 nM. The molecule further came in with an EC50 in experiment [2] (class symbols) of 21 to 150 nM.
On the same counts, the results for `COc1cc2ccc3cc2cc1CCCC(C)(C)COC(=O)N[C@@H](C(C)(C)C)C(=O)N1C[C@@]3(OC)C[C@H]1C(=O)N[C@]1(C(=O)NS(=O)(=O)C2CC2)C[C@H]1C(F)F` [Example 11] are 1 to 10 nM and 11 to 20 nM.
`C=C[C@@H]1C[C@]1(NC(=O)[C@@H]1C[C@]2(OC)CN1C(=O)[C@H](C(C)(C)C)NC(=O)OCCCCCCc1cc3cc2ccc3cc1OC)C(=O)NS(=O)(=O)C1CC1` [Example 12]: the IC50 in experiment [1] (numeric values) stood at 1 nM. This molecule had an EC50 in experiment [2] (numeric values) of 2.84 nM.
Take `COc1cc2ccc3cc2cc1CCCCCCOC(=O)N[C@@H](C(C)(C)C)C(=O)N1C[C@@]3(OC)C[C@H]1C(=O)N[C@]1(C(=O)NS(=O)(=O)C2CC2)C[C@H]1C1CC1` [Example 13]: the IC50 in experiment [1] (class symbols) was in the range of 1 to 10 nM. The same molecule displayed an EC50 in experiment [2] (class symbols) of 11 to 20 nM.
With `C=C[C@@H]1C[C@]1(NC(=O)[C@@H]1C[C@]2(OC)CN1C(=O)[C@H](C(C)(C)C)NC(=O)OCC(C)(C)CCCCc1cc3cc2ccc3cc1OC)C(=O)NS(=O)(=O)C1CC1` [Example 14], in experiment [1] (class symbols), the IC50 was in the range of 1 to 10 nM. The same molecule registered an EC50 in experiment [2] (class symbols) of 1 to 10 nM.
Consider `COc1cc2ccc3cc2cc1CCCCC(C)(C)COC(=O)N[C@@H](C(C)(C)C)C(=O)N1C[C@@]3(OC)C[C@H]1C(=O)N[C@]1(C(=O)NS(=O)(=O)C2CC2)C[C@H]1C1CC1` [Example 15], for which, in experiment [1] (class symbols), the IC50 fell in the range of 1 to 10 nM. In experiment [2] (class symbols), this molecule gave an EC50 of 1 to 10 nM.
Take `CC[C@@H]1C[C@]1(NC(=O)[C@@H]1C[C@]2(OC)CN1C(=O)[C@H](C(C)(C)C)NC(=O)OCC(C)(C)CCCCc1cc3cc2ccc3cc1OC)C(=O)NS(=O)(=O)C1CC1` [Example 16]: the IC50 in experiment [1] (class symbols) lay in the range of 11 to 12 nM. The molecule also returned an EC50 in experiment [2] (class symbols) of 21 to 150 nM.
For `C=C[C@@H]1C[C@]1(NC(=O)[C@@H]1C[C@]2(OC)CN1C(=O)[C@H](C(C)(C)C)NC(=O)OCCC(C)(C)CCCc1cc3cc2ccc3cc1OC)C(=O)NS(=O)(=O)C1CC1` [Example 17], the IC50 in experiment [1] (class symbols) was in the range of 1 to 10 nM. Also, the half-maximal effective concentration (EC50) in experiment [2] (class symbols) was in the range of 1 to 10 nM.
`COc1cc2ccc3cc2cc1CCCC(C)(C)CCOC(=O)N[C@@H](C(C)(C)C)C(=O)N1C[C@@]3(OC)C[C@H]1C(=O)N[C@]1(C(=O)NS(=O)(=O)C2CC2)C[C@H]1C(F)F` [Example 18]: the IC50 in experiment [1] (class symbols) lay within 1 to 10 nM. In addition, the EC50 in experiment [2] (class symbols) fell in the range of 1 to 10 nM.
`COc1cc2ccc3cc2cc1CCCC(C)(C)CCOC(=O)N[C@@H](C(C)(C)C)C(=O)N1C[C@@]3(OC)C[C@H]1C(=O)N[C@]1(C(=O)NS(=O)(=O)C2CC2)C[C@H]1C1CC1` [Example 19]: the IC50 in experiment [1] (class symbols) was 1 to 10 nM. Further, in experiment [2] (class symbols), the EC50 lay in the range of 1 to 10 nM.
